Results reported in patent US12258360B2, “Compositions and methods for treatment of anticancer-drug resistant cancers” (THE GEORGE WASHINGTON UNIVERSITY, priority 2020, dated 2025).

Tests used:
IGROV1 cells = test: flow cytometry (FACS) of propidium-iodide stained IGROV1 cells; type: cell-based, human; conditions: 1 μM
[1] = test system: recruitment of CtIP to DSB sites in IGROV1 cells; test: immunofluorescence assay of CtIP co-localization with γH2AX after micro-irradiation; type: cell-based, human; conditions: 1 μM, 30 minutes post irradiation
Protocol: H2AX (H2A histone family member X) becomes phosphorylated on serine 139 (wherein the phosphorylated form is then called […]) as a reaction on DNA double-strand breaks (DSB). And-1 regulates DSB end resection by establishing a condition or acting as a platform for recruitment of the tumor suppressor protein CtIP—a CtBP (carboxy-terminal binding protein)-interacting protein, to the DSB sites. […] In brief, IGROV1 cells were cultured on coverslips coated with 0.01% of poly-L-lysine. After treatment, the cells were then washed once with PBS, then pre-extracted with 0.5% Triton X-100 extraction buffer (10 mM PIPES pH 7.0, 100 mM NaCl, 3 mM MgCl2 and 300 mM sucrose) on ice for 5 minutes. After washing with PBS, cells were fixed with 4% paraformaldehyde in PBS for 15 minutes. Cells were then washed and incubated for 10 minutes in blocking buffer (PBS containing 3% BSA and 0.02% Tween-20) and subsequently incubated for 1 hour with a primary antibody at room temperature. Cells were washed three times with PBS-T (PBS containing 0.02% Tween-20) and then incubated with a secondary antibody (e.g., rabbit Alexa Fluor-594 and mouse Alexa Fluor-488). After washing with PBS-T, cells were mounted with Fluoromount G containing DAPI (4′,6-diamidino-2-phenylindole—a fluorescent stain that binds strongly to adenine-thymine-rich regions in DNA). Slides were then imaged using a Nikon Eclipse 80i microscope. […]

IGROV1 CR xenograft = type: in vivo, mice
Protocol: To evaluate the potency of And-1 inhibitors in vivo, IGROV1 or MCF7 cells were subcutaneously implanted into nude mice to form ovarian or breast tumors, respectively. In brief, 5-6 week-old female BALB/c athymic nude mice (CByJ.Cg-Foxn1nu/J, weighting 20-25 grams) were inoculated subcutaneously by injecting the OC cells, cisplatin resistant OC cells or breast cancer cells suspended in 100 μl ice-cold Matrigel/PBS (1:1, V:V; 5×10^6/mouse) into the dorsal flank of each mouse. When the average tumor volume reached 100-150 mm^3, the mice were randomized into subsequent experiment groups. For tumors treated with CH3 only, CH3 was given at 0 mg/kg, 20 mg/kg and 40 mg/kg via intraperitoneal injection twice a week for three weeks. […] The relative tumor volumes were calculated using the formula: a×(b^2)/2, for which a and b represented the longest and shortest diameters, respectively. During the drug treatment, the tumor volume and body weight were measured. Tumor samples were collected 4 days after final administration of the drug.
To assess the efficacy of combination therapy with And-1 inhibitor and cisplatin in vivo, an IGROV1 CR xenograft was treated with vehicle, And-1 inhibitors, cisplatin or combination of cisplatin and And-1 inhibitor via intraperitoneal injection.

And-1 [2] = biological target: T1, And-1 (Homo sapiens, UniProt O75717); test: immunoblot analysis of And-1 expression in IGROV1 cells; type: cell-based; design: endogenous in cells; host or cells: IGROV1 CR; conditions: immunoblot, read-out: IC50 for inhibition of And-1 expression
T1 sequence (O75717 1-1129): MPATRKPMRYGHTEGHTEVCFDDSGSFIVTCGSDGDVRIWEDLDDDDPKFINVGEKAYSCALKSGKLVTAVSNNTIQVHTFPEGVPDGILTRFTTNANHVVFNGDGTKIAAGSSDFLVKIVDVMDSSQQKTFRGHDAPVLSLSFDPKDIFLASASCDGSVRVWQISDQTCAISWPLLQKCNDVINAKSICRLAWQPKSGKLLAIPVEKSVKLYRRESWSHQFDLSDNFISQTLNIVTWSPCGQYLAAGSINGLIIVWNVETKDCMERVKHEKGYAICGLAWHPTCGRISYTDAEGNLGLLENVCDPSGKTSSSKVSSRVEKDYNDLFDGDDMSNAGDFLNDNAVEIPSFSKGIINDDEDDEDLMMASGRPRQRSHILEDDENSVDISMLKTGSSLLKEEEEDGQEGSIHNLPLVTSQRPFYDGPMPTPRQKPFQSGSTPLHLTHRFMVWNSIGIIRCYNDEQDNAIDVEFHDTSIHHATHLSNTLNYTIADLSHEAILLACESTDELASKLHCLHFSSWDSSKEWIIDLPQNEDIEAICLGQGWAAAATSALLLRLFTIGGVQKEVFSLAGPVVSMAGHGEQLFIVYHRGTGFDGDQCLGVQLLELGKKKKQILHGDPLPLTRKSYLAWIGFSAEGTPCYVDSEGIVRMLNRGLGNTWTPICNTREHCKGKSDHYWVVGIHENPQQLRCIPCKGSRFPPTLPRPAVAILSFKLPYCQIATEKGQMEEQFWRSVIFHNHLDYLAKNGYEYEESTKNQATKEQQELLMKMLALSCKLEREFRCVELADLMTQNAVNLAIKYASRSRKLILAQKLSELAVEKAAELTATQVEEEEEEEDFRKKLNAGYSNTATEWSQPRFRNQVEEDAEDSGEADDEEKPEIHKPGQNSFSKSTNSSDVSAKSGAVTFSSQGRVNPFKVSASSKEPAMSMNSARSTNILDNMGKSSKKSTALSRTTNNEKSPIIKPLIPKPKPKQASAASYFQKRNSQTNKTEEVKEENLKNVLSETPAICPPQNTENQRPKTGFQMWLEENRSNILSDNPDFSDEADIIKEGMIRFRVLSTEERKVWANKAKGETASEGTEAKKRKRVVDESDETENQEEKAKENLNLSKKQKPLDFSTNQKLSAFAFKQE
Protocol: The high IC50 of resveratrol compromises its potential clinical application; therefore, resveratrol was used as a lead compound to screen 12 analogs of resveratrol for potent compounds that can inhibit And-1 (FIG. 14). […] To perform immunoblot analyses, cells were first treated with increasing concentrations of the 12 analogs. After treatment, the cells were harvested and then lysed with RIPA buffer protease inhibitor and phosphatase inhibitor cocktail. Protein concentration was determined by the BCA protein assay. Equal amounts of whole cell lysates were separated on sodium dodecyl sulfate polyacrylamide gel electrophoresis (SDS-PAGE) and transferred onto nitrocellulose membranes. Membranes were then incubated in blocking solution (5% non-fat milk in 20 mM TRIS-HCl, 150 mM NaCl, 0.1% Tween-20) (TBST), followed by incubation with the indicated antibodies at 4° C. overnight. The membranes were then washed in TBST and incubated with HRP-conjugated secondary antibodies for 1 hour at room temperature (21° C.±2° C.). Antibody detection was performed with an enhanced chemiluminescence reaction.

SREBP target gene SCD-1 = test: RT-PCR detection of SCD-1 gene expression in AN3CA cells; type: cell-based, human; conditions: 10 μM; for Relative mRNA expression of SCD-1: 48 h, DMSO = 1
Protocol: • 1. Experimental reagent • 2. The experimental steps are as follows: • 2.1 AN3CA cell recovery and culture (10% serum 1% double antibody in MEM medium); • 2.2 passages (passage at a ratio of 1:2); • 2.3 Place 6 well plates when the cell status is good, 5×10^5Well, culture overnight; • 2.4 adding medicine: diluting the final concentration of the drug with a culture medium to 10 μM, 2 mL/well; • 2.5 adding medicine for 48 h, and then extracting RNA; • 2.5.1 removing the culture medium, adding 0.5 mL/hole Trizol to lyse the cells, repeatedly blowing and beating the cells by a pipette after 5 min, completely lysing the cells, transferring the cells into a 1.5 mL EP tube without RNase, and standing the tube for 5 min; • 2.5.2 adding 200 µl chloroform, shaking rapidly, mixing, standing for 10 min 12000 rpm/15 min; • 2.5.3 carefully taking out the supernatant, transferring the supernatant into an EP tube, adding isopropanol with the same volume, reversing, uniformly mixing, standing for 10 min, and centrifuging at 12000 rpm/10 min; • 2.5.4 removing the supernatant, adding 1 mL of 75% ethanol for washing, centrifuging at 8000 rpm/5 min once, carefully removing the supernatant, standing at room temperature for 10 min to volatilize the ethanol, and dissolving the precipitate with 40 μL of DEPC treated water when the precipitate becomes transparent; • 2.5.5 RNA concentration was measured and DEPC-treated water was diluted to 100 ng/μL • 2.6 reverse transcription: Kit Takara (PrimeScript RT reagent Kit (Perfect Real Time)

AN3CA cells [3] = test: cell clonogenic assay in AN3CA cells; type: cell-based, human
Protocol: • 1. The experimental steps are as follows: • 1.1 AN3CA cell recovery and culture (MEM medium, 10% serum, 1% double antibody); • 1.2 Passages (1:2 ratio passage); • 1.3 When the cell state is good, laying 6-hole plates, 500/hole, and culturing overnight; • 1.4 Adding medicine: […], 2 mL/well; • 1.5 Adding medicine in a liquid changing mode every two days; • 1.6 Frequent observation. The culture was terminated when macroscopic colonies appeared in the culture dish. The supernatant was discarded, carefully rinsed 2 times with PBS and air dried. Cells were fixed with 5 mL of 4% paraformaldehyde for 30 minutes or with methanol for 10 minutes. And (3) removing the stationary liquid after air drying, adding a proper amount of GIMSA, dyeing for 10-30 minutes by using the dyeing liquid, then slowly washing away the dyeing liquid by using running water, and air drying. • 1.7 Plates were inverted and overlaid with a piece of transparent film with grid and clones were counted either directly with the naked eye or with a microscope (low power) for clones larger than 10 cells. And finally calculating the clone formation rate. • 1.8 Percent colony formation rate (number of clones/number of inoculated cells)×100%

AN3CA cells [4] = test: cell proliferation assay (MTS) in AN3CA cells; type: cell-based, human; conditions: 48 h; for inhibition of AN3CA cell proliferation (in words): 10 μM
Protocol: • 1. The experimental steps are as follows: • 1.1 AN3CA cell recovery and culture (MEM medium, 10% serum, 1% double antibody); • 1.2 Passages (passage at a ratio of 1:2); • 1.3 Place 96-well plate when the cell status is good, 1×10^4 Well, culture overnight; • culture medium with 10% defatted serum • 1.4 Adding medicine: diluting the final concentration of the drug with a culture medium to 10 μM, and treating for 48 h at 100 μL/well; • culture medium with 10% defatted serum • 1.5 Addition of 2 μL MTS/well, care taken to prevent bubble formation, 490 nm data after 1-4 h

And-1 [5] = biological target: T1, And-1; test: inhibition of And-1 in OV90 CR cells; type: cell-based; design: endogenous in cells; conditions: inhibition of And-1, OV90 CR cells
And-1 [6] = biological target: T1, And-1; test: inhibition of And-1 in IGROV1 CR cells; type: cell-based; design: endogenous in cells; host or cells: IGROV1 CR; conditions: inhibition of And-1, IGROV1 CR cells
And-1 [7] = biological target: T1, And-1; test: cellular thermal shift assay; type: binding; design: endogenous in cells; host or cells: IGROV1 CR; conditions: cells incubated 8 hours, compared to DMSO
Protocol: To explore whether And-1 inhibitors directly bind to And-1, cellular thermal shift assays were performed in which a small molecule binds to a protein resulting in thermal stabilization of the protein. Briefly, cells were incubated with MG132 (10 μM), DHS, CH3, CH10 or DMSO for 8 hours. After washing with ice-cold PBS (suppled with Protease Inhibitor Cocktail), cells were aliquoted into PCR tubes (100 μL each) and then incubated at different temperatures (from 25° C. to 71° C.) for 4 minutes. After the cells were frozen and thawed twice using liquid nitrogen, proteins were isolated from the cells after centrifugation and incubated at 70° C. for 10 minutes for analysis by western blotting.

Structure (SMILES): CC(=O)O.Cc1c(-c2ccc(O)cc2)n(Cc2ccc(OCCN3CCCCCC3)cc2)c2ccc(O)cc12 [BZA, reference compound]
- percentage of cells in the S-phase (IGROV1 cells): reduced the percentage of cells in the S-phase
- recruitment of CtIP to DSB sites induced by micro-irradiation [1]: significantly decreased
- And-1 expression in tumor samples (IHC) (IGROV1 CR xenograft; IGROV1 CR xenograft): suppressed expression of And-1
- tumor growth, combination with cisplatin vs cisplatin alone (IGROV1 CR xenograft; IGROV1 CR xenograft, cisplatin 8 mg/kg, CH3 20 mg/kg, BZA 2 mg/kg intraperitoneally, three weeks): excellent synergy in reducing tumor growth
- systemic toxicity of combination with cisplatin (body weight, H&E staining) (IGROV1 CR xenograft; mouse, in vivo): no obvious systemic toxicity or side effect
- IC50 (And-1 [2]): 0.32 µM

Structure (SMILES): OB1OCc2cc(/C=C/c3cccc(C(F)(F)F)c3)ccc21 [Compound II, (E)-5-(3-(trifluoromethyl)styryl)benzo[c][1,2]oxaborol-1(3H)-ol]
- activity of reducing SCD-1 gene expression (in words) (SREBP target gene SCD-1; AN3CA cells): better than those of BF-175
- Relative mRNA expression of SCD-1 (SREBP target gene SCD-1; AN3CA cells): 0.39
- inhibitory effect on Srebp (SREBP target gene SCD-1; human endometrial cancer AN3CA cells): high inhibitory effect
- inhibition of clone formation rate (AN3CA cells [3]; 10 μM): completely inhibit
- inhibition of AN3CA cell proliferation (in words) (AN3CA cells [4]): superior to BF 175
- inhibition at 10 µM (AN3CA cells [4]; Homo sapiens, AN3-CA, MTS): 80%
- IC50 (And-1 [5]): 21.1 µM
- IC50 (And-1 [6]): 20.4 µM

Structure (SMILES): Oc1ccc(/C=C/c2ccc(O)cc2)cc1 [DHS, reference compound]
- IC50 (And-1 [2]): 8.92 µM
- thermal stabilization of And-1 protein at higher temperatures (And-1 [7]): stabilized

Structure (SMILES): OB1OCc2cc(/C=C/c3cc(Cl)cc(Cl)c3)ccc21 [XIV, (E)-5-(3,5-dichlorostyryl)benzo[c][1,2]oxaborol-1(3H)-ol]
- Relative mRNA expression of SCD-1 (SREBP target gene SCD-1; AN3CA cells): 0.46
- inhibition of clonogenic rate (AN3CA cells [3]; 5 μM): comparable to that of 10 μM BF 175
- inhibition of AN3CA cell proliferation (in words) (AN3CA cells [4]): different degrees of inhibition
- IC50 (And-1 [5]): 29.9 µM
- IC50 (And-1 [6]): 25.7 µM
